ChEMBL document CHEMBL6182857, “Targeting biofilm formation in Candida albicans with halogenated pyrrolopyrimidine derivatives” (Eur J Med Chem, 2025)
Activity calls are given as the source filed them. The calls are words filed in the database; no cut-off is given here.

Experiments:
Candida albicans [1] = test: Antibiofilm activity against fluconazole-resistant Candida albicans DAY185 assessed as inhibition of biofilm formation at 0.5 ug/ml measured after 24 hrs by crystal violet staining based analysis relative to control; format: functional, organism-based; details: dose 0.5 µg/ml
Candida albicans [2] = test: Antibiofilm activity against fluconazole-resistant Candida albicans DAY185 assessed as inhibition of biofilm formation at 1 ug/ml measured after 24 hrs by crystal violet staining based analysis relative to control; format: functional
Candida albicans [3] = test: Antibiofilm activity against fluconazole-resistant Candida albicans DAY185 assessed as inhibition of biofilm formation at 50 ug/ml measured after 24 hrs by crystal violet staining based analysis relative to control; format: functional

Structure (SMILES)	inhibition (Candida albicans [1])	inhibition at 1 µg/mL (Candida albicans [2]) [%]	inhibition at 50 µg/mL (Candida albicans [3]) [%]
C[C@@H]1[C@H](O)[C@@H](C)/C=C/C=C/C=C/C=C/C=C/C=C/C=C/[C@H](O[C@@H]2O[C@H](C)[C@@H](O)[C@H](N)[C@@H]2O)C[C@@H]2O[C@](O)(C[C@@H](O)C[C@@H](O)[C@H](O)CC[C@@H](O)C[C@@H](O)CC(=O)O[C@H]1C)C[C@H](O)[C@H]2C(=O)O [AMPHOTERICIN B]	Active	96	–
Clc1ncnc2[nH]cc(Br)c12	–	–	> 85
Clc1c[nH]c2ncnc(Cl)c12	–	–	> 85
CC(=O)N1CCN(c2ccc(OCC3COC(Cn4ccnc4)(c4ccc(Cl)cc4Cl)O3)cc2)CC1 (stereo not given) [KETOCONAZOLE]	–	< 12	–
